According to patent US9290476B2, “Methylene linked quinolinyl modulators of RORγt” (Janssen Pharmaceutica NV, priority 2012, dated 2016):
Counter-ions that a name gives are not always drawn. Like-named read-outs stand apart in the source and are kept apart here.

Test system: IL-17 production by CD4 T cells
Assay: Human Th17 assay (IL-17 production by CD4 T cells under Th17 differentiation)
Assay type: cell-based
Settings: read-out: Human Th17 Assay, IC50 μM
From the text: The human Th17 assay tests the effect of RORγt modulatory compounds on IL-17 production by CD4 T cells under conditions which favor Th17 differentiation.
Total CD4^+ T cells were isolated from the peripheral blood mononuclear cells (PBMC) of healthy donors using a CD4^+ T cell isolation kit II, following the manufacturer's instructions (Miltenyi Biotec). Cells were resuspended in a medium of RPMI-1640 supplemented with 10% fetal bovine serum, penicillin, streptomycin, glutamate, and β-mercaptoethanol and were added to 96-well plates at 1.5×10^5 per 100 μL per well. 50 μL of compound at titrated concentrations in DMSO were added into each well at final DMSO concentration at 0.2%. Cells were incubated for 1 hour, then 50 μL of Th17 cell differentiation medium was added to each well. The final concentrations of antibodies and cytokines (R&D Systems) in differentiation medium were: 3×10^6/mL anti-CD3/CD28 beads (prepared using human T cell activation/expansion kit, Miltenyi Biotec), 10 μg/mL anti-IL4, 10 μg/mL anti-IFNγ, 10 ng/mL IL1β, 10 ng/mL IL23, 50 ng/mL IL6, 3 ng/mL TGFβ and 20 U/mL IL2. Cells were cultured at 37° C. and 5% CO2 for 3 days. Supernatants were collected and the accumulated IL-17 in culture was measured by using MULTI-SPOT® Cytokine Plate following manufacture's instruction (Meso Scale Discovery). The plate was read using Sector Imager 6000, and IL-17 concentration was extrapolated from the standard curve. The IC50s were determined by GraphPad.

| Compound | IC50 (Homo sapiens, CD4+ T, 72 h) [µM] | other results |
| --- | --- | --- |
| COc1nc2ccc(C(O)(c3ccc(Cl)cc3)c3cncn3C)cc2c(Cl)c1Cc1ccc(-n2cccn2)cc1 (single isomer, unassigned) [Example 33C, (3-(4-(1H-pyrazol-1-yl)benzyl)-4-chloro-2-methoxyquinolin-6-yl)(4-chlorophenyl)(1-methyl-1H-imidazol-5-yl)methanol] | 0.067 | – |
| COc1nc2ccc(C(O)(c3ccc(C(F)(F)F)nc3)c3cncn3C)cc2c(Cl)c1Cc1ccc(-n2cccn2)cc1 (single isomer, unassigned) [Example 35B, (3-(4-(1H-pyrazol-1-yl)benzyl)-4-chloro-2-methoxyquinolin-6-yl)(1-methyl-1H-imidazol-5-yl)(6-(trifluoromethyl)pyridin-3-yl)methanol] | 0.074 | – |
| COc1nc2ccc(C(O)(c3ccc(Cl)cc3)c3cncn3C)cc2c(Cl)c1Cc1ccc(C#N)cc1 (single isomer, unassigned) [Example 63C, 4-((4-Chloro-6-((4-chlorophenyl)(hydroxy)(1-methyl-1H-imidazol-5-yl)methyl)-2-methoxyquinolin-3-yl)methyl)benzonitrile] | 0.038 | – |
| COc1nc2ccc(C(O)(c3cncn3C)C3CCN(C(C)=O)CC3)cc2c(Cl)c1Cc1ccc(-n2cccn2)cc1 (single isomer, unassigned) [Example 60B, 1-(4-((3-(4-(1H-Pyrazol-1-yl)benzyl)-4-chloro-2-methoxyquinolin-6-yl)(hydroxy)(1-methyl-1H-imidazol-5-yl)methyl)piperidin-1-yl)ethanone] | – | IC50 (Homo sapiens, CD4+ T, 72 h, human CD4+ T cells, IL-17 after 3 days): 0.17 µM |
| COc1nc2ccc(C(O)(c3cnnn3C)c3cnnn3C)cc2c(Cl)c1Cc1ccc(-n2cccn2)cc1 [Example 61, (3-(4-(1H-Pyrazol-1-yl)benzyl)-4-chloro-2-methoxyquinolin-6-yl)bis(1-methyl-1H-1,2,3-triazol-5-yl)methanol] | 0.0042 | – |
| COc1nc2ccc(C(O)(c3ccc(C(F)(F)F)nc3)c3cncn3C)cc2c(Cl)c1Cc1ccc(-n2cccn2)cc1 (centres unmarked) [Example 35A, (3-(4-(1H-Pyrazol-1-yl)benzyl)-4-chloro-2-methoxyquinolin-6-yl)(1-methyl-1H-imidazol-5-yl)(6-(trifluoromethyl)pyridin-3-yl)methanol.TFA] | 0.3 | – |
| COc1nc2ccc(C(O)(c3ccc(Cl)cc3)c3cncn3C)cc2c(Cl)c1Cc1ccc(-n2cccn2)cc1 (centres unmarked) [Example 33A, (3-(4-(1H-Pyrazol-1-yl)benzyl)-4-chloro-2-methoxyquinolin-6-yl)(4-chlorophenyl)(1-methyl-1H-imidazol-5-yl)methanol] | 0.14 | – |
| COc1nc2ccc(C(O)(c3ccc(C(F)(F)F)nc3)c3cncn3C)cc2c(Cl)c1Cc1ccc(C(F)(F)F)cc1 (single isomer, unassigned) [Example 62B, (4-Chloro-2-methoxy-3-(4-(trifluoromethyl)benzyl)quinolin-6-yl)(1-methyl-1H-imidazol-5-yl)(6-(trifluoromethyl)pyridin-3-yl)methanol] | 0.1 | – |
| COc1nc2ccc(C(O)(c3ccc(C(F)(F)F)nc3)c3cncn3C)cc2c(Cl)c1Cc1ccc(C(F)(F)F)cc1 (single isomer, unassigned) [Example 62C, (4-Chloro-2-methoxy-3-(4-(trifluoromethyl)benzyl)quinolin-6-yl)(1-methyl-1H-imidazol-5-yl)(6-(trifluoromethyl)pyridin-3-yl)methanol] | – | IC50: 0.064 µM |
| COc1nc2ccc(C(O)(c3cncn3C)C3CCN(C(C)=O)CC3)cc2c(Cl)c1Cc1ccc(-n2cccn2)cc1 (single isomer, unassigned) [Example 60C, 1-(4-((3-(4-(1H-Pyrazol-1-yl)benzyl)-4-chloro-2-methoxyquinolin-6-yl)(hydroxy)(1-methyl-1H-imidazol-5-yl)methyl)piperidin-1-yl)ethanone] | – | IC50 (human CD4+ T cells, IL-17 after 3 days): 0.16 µM |
| COc1nc2ccc(C(O)(c3ccc(C(F)(F)F)nc3)c3cncn3C)cc2c(Cl)c1Cc1ccc(-n2cccn2)cc1 (single isomer, unassigned) [Example 35C, (3-(4-(1H-pyrazol-1-yl)benzyl)-4-chloro-2-methoxyquinolin-6-yl)(1-methyl-1H-imidazol-5-yl)(6-(trifluoromethyl)pyridin-3-yl)methanol] | – | IC50: 0.051 µM |
